According to patent EP3820512B1, “IMMUNOMODULATING COMPOSITIONS COMPRISING OLIGOSACCHARIDE DERIVATIVES” (priority 2018, dated 2020):
Blank lines part the entries; values can stand above or below the molecule they belong to.

What was measured:
[1] = molecular target: TLR4 (Homo sapiens, UniProt O00206); test: TLR4 inhibitory and activating activity in THP-1 cells at low and high concentrations; type: cell-based; parameters: endogenous in cells; host or cells: THP-1 (human monocytic) cells; settings: for % inhibition over control TLR4 / % activation over control TLR4: THP-1 cells; for TLR2/4 antagonist activity: as shown in Table-1 (FIG. 1), TLR2 and TLR4
Sequence of TLR4 (O00206 24-839): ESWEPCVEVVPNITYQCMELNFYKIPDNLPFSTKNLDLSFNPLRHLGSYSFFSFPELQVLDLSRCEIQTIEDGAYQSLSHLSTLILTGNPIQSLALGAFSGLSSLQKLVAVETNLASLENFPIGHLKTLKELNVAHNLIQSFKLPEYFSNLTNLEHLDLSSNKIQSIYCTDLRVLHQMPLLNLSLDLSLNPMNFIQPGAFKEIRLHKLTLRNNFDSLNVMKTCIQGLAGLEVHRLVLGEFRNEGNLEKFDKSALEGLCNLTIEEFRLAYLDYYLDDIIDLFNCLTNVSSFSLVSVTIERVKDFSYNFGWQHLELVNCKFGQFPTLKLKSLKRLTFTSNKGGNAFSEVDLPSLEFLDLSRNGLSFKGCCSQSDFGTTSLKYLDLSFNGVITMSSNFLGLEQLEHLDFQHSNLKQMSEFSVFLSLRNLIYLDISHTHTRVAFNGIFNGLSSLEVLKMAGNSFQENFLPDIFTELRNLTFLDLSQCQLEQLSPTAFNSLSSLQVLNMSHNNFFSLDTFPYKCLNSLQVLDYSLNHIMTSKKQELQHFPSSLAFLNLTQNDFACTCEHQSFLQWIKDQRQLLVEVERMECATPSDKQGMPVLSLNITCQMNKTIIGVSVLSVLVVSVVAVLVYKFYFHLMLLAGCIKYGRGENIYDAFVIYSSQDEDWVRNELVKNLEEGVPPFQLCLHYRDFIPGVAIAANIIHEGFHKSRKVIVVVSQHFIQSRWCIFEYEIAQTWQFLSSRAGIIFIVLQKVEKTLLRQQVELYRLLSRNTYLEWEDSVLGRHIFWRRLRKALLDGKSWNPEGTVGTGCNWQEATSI
Sequence of TLR4 (Q9Y6Y9 17-160 partner limits assumed): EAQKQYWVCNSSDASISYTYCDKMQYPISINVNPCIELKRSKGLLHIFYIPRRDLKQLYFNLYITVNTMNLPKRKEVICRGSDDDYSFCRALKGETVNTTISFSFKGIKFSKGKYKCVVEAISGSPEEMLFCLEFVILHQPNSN

[2] = test system: THP-1 (human monocytic) cells; test: Cytokine response (IL-1β, TNF-α, IL-10) of THP-1 cells treated with compounds; type: cell-based; settings: 100-200 µM
Procedure: When THP-1 (human monocytic) cells were treated with 100-200 µM of compounds 8, 14, 17, 23, 29, and 32, they produced an increased IL-1β and TNF-α response, decreased anti-inflammatory cytokine IL-10 (FIG. 4).

[3] = test system: VEGF induced tube formation in HUVECs; test: Anti-angiogenic activity, Tube Formation kit, VEGF induced; type: cell-based, human; settings: VEGF 100ng/mL
Procedure: Selected TLR2/4 antagonist compounds 2, 6, 7, 8, 14, 17 and 32 were evaluated for anti-angiogenic activity using the Tube Formation kit (Cat#3470-096-K). VEGF (100ng/mL) was used as positive control. These compounds have potential applications in diseases associated with pathological angiogenesis such as solid tumor, […], diabetic retinopathy as well as AMD.

[4] = test system: hPBMC; test: Cytotoxicity in hPBMC, MTT cell proliferation kit; type: cell-based, human; settings: 0.1, 1.0, 10, 100 and 1000 µM, 24h
Procedure: The cells were treated with compounds and incubated for 24h. Cell viability was assessed using MTT cell proliferation kit (Promega).

[5] = test system: HUVECs; test: Cytotoxicity in HUVECs, MTT cell proliferation kit; type: cell-based, human; settings: 100 µM, 24h
Procedure: Selected TLR2/4 antagonist compounds 2, 6, 7, 8, 14, 17 and 32 were evaluated for cytotoxicity in HUVECs at 100 µM concentration. The cells were treated with compounds and incubated for 24h. Cell viability was assessed using MTT cell proliferation kit (Promega). All the compounds were not toxic to HUVECs (FIG. 15).

[6] = molecular target: T1, TLR2 (Homo sapiens, UniProt O60603); test: TLR2 activity in PMA-stimulated THP-1 monocyte cells, ELISA of cell lysate; type: cell-based; settings: THP-1 cells
T1 construct: endogenous in cells; host or cells: THP-1 monocyte cells stimulated with PMA
T1 sequence (O60603 21-784): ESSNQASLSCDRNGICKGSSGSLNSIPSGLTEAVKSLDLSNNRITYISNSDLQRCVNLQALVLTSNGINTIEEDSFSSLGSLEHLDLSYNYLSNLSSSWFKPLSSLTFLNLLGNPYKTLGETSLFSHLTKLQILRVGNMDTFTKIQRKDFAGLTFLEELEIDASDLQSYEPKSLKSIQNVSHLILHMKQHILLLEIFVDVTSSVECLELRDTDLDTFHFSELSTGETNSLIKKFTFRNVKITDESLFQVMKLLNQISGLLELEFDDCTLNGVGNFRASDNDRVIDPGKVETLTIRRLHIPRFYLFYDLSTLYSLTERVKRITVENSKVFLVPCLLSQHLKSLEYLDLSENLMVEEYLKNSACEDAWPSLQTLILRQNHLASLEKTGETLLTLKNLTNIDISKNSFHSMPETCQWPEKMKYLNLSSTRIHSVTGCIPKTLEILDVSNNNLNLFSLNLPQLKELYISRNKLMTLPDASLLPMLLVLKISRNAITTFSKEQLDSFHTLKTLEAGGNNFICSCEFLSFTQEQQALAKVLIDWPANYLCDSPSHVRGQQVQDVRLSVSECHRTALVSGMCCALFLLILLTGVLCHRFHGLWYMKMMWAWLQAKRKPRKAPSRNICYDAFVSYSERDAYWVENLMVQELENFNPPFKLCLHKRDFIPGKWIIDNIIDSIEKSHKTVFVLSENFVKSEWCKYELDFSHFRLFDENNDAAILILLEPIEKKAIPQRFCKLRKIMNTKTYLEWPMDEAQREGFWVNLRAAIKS
Procedure: THP-1 monocyte cells (1×10^5) were stimulated with 200nM of PMA for 48h and treated with different concentrations of test compounds. The TLR2 activity was measured after 24 h from the cell lysate using ELISA.

[7] = test system: hyperoxia induced BPD in mouse pups; test: Hyperoxia-exposed BPD mouse model (newborn pups); type: in vivo
From the text: Neonatal mice and humans undergo similar stages of lung development but differ with respect to the duration of each stage and its temporal relationship to gestational age. The lungs of the mouse born at term are in the saccular stage and are surfactant sufficient; this can be considered somewhat akin to a human preterm neonate in the same stage of lung development that has been exposed to a full complement of antenatal steroids (which is known to enhance surfactant production). In terms of mimicking the human condition, the most successful hyperoxia models are those that limit exposure to hyperoxia to the saccular stage of pulmonary development. The mouse BPD model involves exposing newborn mice (postnatal day 1 or PN1) to 100% oxygen till PN4 followed by recovery in room air (RA) for another 10 days.
After the recovery period, their lungs were harvested and processed for quantitative PCR, western blotting, histopathology and ELISA.
After the recovery period, their lungs were harvested and processed for quantitative PCR, western blotting and histopathology and ELISA.
BPD is characterized by large simplified alveoli, inflammation, increased cell death, decreased cell proliferation, dysmorphic capillary configuration, and variable interstitial cellularity and/or fibroproliferation. […] This is determined by measuring the alveolar chord length, septal thickness and radial alveolar count (RAC). In BPD, the alveolar area increases which is characterized by increase in the diameter of the alveolar sacs, the septa become thickened (thus interfering in gaseous exchange) and the RAC, a parameter used to assess the complexity of terminal respiratory unit by pulmonologists, decreases as a result of arrested lung development.

[8] = test system: P. aeruginosa (ATCC-10145 GFP) infected skin wounds; test: Murine study of skin wound infection; type: in vivo, C57BL6 mice
Procedure: Five groups of C57BL/6 mice (8-10 weeks old, n = 4) were wounded on the dorsal surface. 25µl containing 10^6 CFU/mL P. aeruginosa in a PBS suspension were pipetted onto the wound and allowed to absorb for at least 3 min. […] Subsequently and for the next 13 days, infected wounds were treated each alternate day with colistin, or with test compounds.
Along with that less focal inflammation is observed in compound treated groups vs PA group.

Molecule: CC(=O)NC1[C@H](Oc2cccc3sc(NC(=O)C(C)(C)C)nc23)O[C@H](CO)[C@@H](O)[C@@H]1O (single isomer, unassigned) [Compound 23]
- % inhibition over control TLR4 ([1]; Concentration 1-10 µM): + (+ means that the % of inhibition or activation is in the range of 15-25%)
- % inhibition over control TLR4 ([1]; Concentration 75-100 µM): + (+ means that the % of inhibition or activation is in the range of 15-25%)
- IL-1β response [2]: increased
- TNF-α response [2]: increased
- anti-inflammatory cytokine IL-10 [2]: decreased

Molecule: CC(=O)NC1[C@H](Oc2ccc(N3CCN(C(C)=O)CC3)cc2)O[C@H](CO)[C@@H](O)[C@@H]1O (single isomer, unassigned) [Compound 28]
- % inhibition over control TLR4 ([1]; Concentration 1-10 µM): + (+ means that the % of inhibition or activation is in the range of 15-25%)
- % activation over control TLR4 ([1]; Concentration 75-100 µM): ++ (++ means that the % of inhibition or activation is in the range of 25-75%)

Molecule: CC(=O)NC1[C@H](Oc2ccc(B(O)O)cc2)O[C@H](CO)[C@@H](O)[C@@H]1O (single isomer, unassigned) [Compound 35, p-Boronic acid phenyl 2-acetamido-2-deoxy-β-D-glucopyranoside]
- % inhibition over control TLR4 ([1]; Concentration 1-10 µM): +++ (+++ means that the % of inhibition or activation is in the range of 75-95%)
- % activation over control TLR4 ([1]; Concentration 75-100 µM): ++ (++ means that the % of inhibition or activation is in the range of 25-75%)
- TLR4 modulatory activity ([1]; summary in words): concentration dependent TLR4 modulatory activity
- TLR2/4 antagonist activity ([1]; summary in words): potent TLR2/4 antagonists

Molecule: CC(=O)N[C@H]1[C@H](Oc2ccc3nonc3c2)O[C@H](CO)[C@@H](O)[C@H]1O (stereo in doubt) [Compound 17, N-((2S,3R,4S,5S,6R)-2-(benzo[c][1,2,5]oxadiazol-5-yloxy)-4,5-dihydroxy-6-(hydroxymethyl)tetrahydro-2H-pyran-3-yl)acetamide]
- VEGF induced tube formation [3]: significantly decreased
- cytotoxicity in hPBMC (cell viability) [4]: not toxic
- % activation over control TLR4 ([1]; Concentration 75-100 µM): ++ (++ means that the % of inhibition or activation is in the range of 25-75%)
- IL-1β response [2]: increased
- TNF-α response [2]: increased
- anti-inflammatory cytokine IL-10 [2]: decreased
- cytotoxicity in HUVECs (cell viability) [5]: not toxic
- % inhibition over control TLR2 ([6]; Concentration 1-10 µM): ++ (++ means that the % of inhibition or activation is in the range of 25-75%)
- % inhibition over control TLR2 ([6]; Concentration 75-100 µM): +++ (+++ means that the % of inhibition or activation is in the range of 75-95%)

- TLR2/4 antagonist activity ([1]; summary in words): potent TLR2/4 antagonists
Molecule: CC(=O)N[C@@H]1[C@@H](OC(C)=O)[C@H](OC(C)=O)[C@@H](COC(C)=O)O[C@H]1NC(=O)c1ccc(O[C@@H]2O[C@H](CO)[C@@H](O)[C@H](O)[C@H]2NC(C)=O)cc1 [Compound 2]
- VEGF induced tube formation [3]: significantly decreased
- cytotoxicity in hPBMC (cell viability) [4]: not toxic
- % inhibition over control TLR4 ([1]; Concentration 1-10 µM): ++ (++ means that the % of inhibition or activation is in the range of 25-75%)
- % inhibition over control TLR4 ([1]; Concentration 75-100 µM): +++ (+++ means that the % of inhibition or activation is in the range of 75-95%)
- cytotoxicity in HUVECs (cell viability) [5]: not toxic
- % inhibition over control TLR2 ([6]; Concentration 1-10 µM): + (+ means that the % of inhibition or activation is in the range of 15-25%)
- % inhibition over control TLR2 ([6]; Concentration 75-100 µM): +++ (+++ means that the % of inhibition or activation is in the range of 75-95%)

- TLR2/4 antagonist activity ([1]; summary in words): potent TLR2/4 antagonists
Molecule: CC(=O)N[C@@H]1[C@@H](O)[C@H](O)[C@@H](CO)O[C@H]1NC(=O)c1ccc(O[C@@H]2O[C@H](CO)[C@@H](O)[C@H](O)[C@H]2NC(C)=O)cc1 [Compound 3]
- % inhibition over control TLR4 ([1]; Concentration 1-10 µM): ++ (++ means that the % of inhibition or activation is in the range of 25-75%)
- % inhibition over control TLR4 ([1]; Concentration 75-100 µM): +++ (+++ means that the % of inhibition or activation is in the range of 75-95%)
- TLR4 inhibition in vivo ([7]; neonatal pups with BPD): inhibit
- lung architecture ([7]; saline (IV) and nanosuspension (IN) formulation): restored
- % inhibition over control TLR2 ([6]; Concentration 1-10 µM): ++ (++ means that the % of inhibition or activation is in the range of 25-75%)
- % inhibition over control TLR2 ([6]; Concentration 75-100 µM): +++ (+++ means that the % of inhibition or activation is in the range of 75-95%)

- TLR2/4 antagonist activity ([1]; summary in words): potent TLR2/4 antagonists
Molecule: CC(=O)N[C@H]1[C@H](Oc2ccc(C(=O)Nc3ccc(O[C@@H]4O[C@H](COC(C)=O)[C@@H](OC(C)=O)[C@H](OC(C)=O)[C@H]4NC(C)=O)cc3)cc2)O[C@H](CO)[C@@H](O)[C@@H]1O [Compound 6]
- VEGF induced tube formation [3]: significantly decreased
- % inhibition over control TLR4 ([1]; Concentration 1-10 µM): ++ (++ means that the % of inhibition or activation is in the range of 25-75%)
- % inhibition over control TLR4 ([1]; Concentration 75-100 µM): +++ (+++ means that the % of inhibition or activation is in the range of 75-95%)
- cytotoxicity in HUVECs (cell viability) [5]: not toxic

- TLR2/4 antagonist activity ([1]; summary in words): potent TLR2/4 antagonists
Molecule: CC(=O)N[C@H]1[C@H](Oc2ccc(NC(=O)c3ccc(O[C@@H]4O[C@H](CO)[C@@H](O)[C@H](O)[C@H]4NC(C)=O)cc3)cc2)O[C@H](CO)[C@@H](O)[C@@H]1O [Compound 7]
- VEGF induced tube formation [3]: significantly decreased
- cytotoxicity in hPBMC (cell viability) [4]: not toxic
- % inhibition over control TLR4 ([1]; Concentration 1-10 µM): +++ (+++ means that the % of inhibition or activation is in the range of 75-95%)
- % inhibition over control TLR4 ([1]; Concentration 75-100 µM): +++ (+++ means that the % of inhibition or activation is in the range of 75-95%)
- cytotoxicity in HUVECs (cell viability) [5]: not toxic
- % inhibition over control TLR2 ([6]; Concentration 1-10 µM): ++ (++ means that the % of inhibition or activation is in the range of 25-75%)
- % inhibition over control TLR2 ([6]; Concentration 75-100 µM): +++ (+++ means that the % of inhibition or activation is in the range of 75-95%)

Molecule: CC(=O)N[C@H]1[C@H](Oc2ccc([N+](=O)[O-])cc2Cl)O[C@H](CO)[C@@H](O)[C@@H]1O [Compound 11]
- % inhibition over control TLR4 ([1]; Concentration 1-10 µM): + (+ means that the % of inhibition or activation is in the range of 15-25%)
- % inhibition over control TLR4 ([1]; Concentration 75-100 µM): + (+ means that the % of inhibition or activation is in the range of 15-25%)

- TLR2/4 antagonist activity ([1]; summary in words): potent TLR2/4 antagonists
Molecule: CC(=O)N[C@H]1[C@H](Oc2ccc(C#N)cc2)O[C@H](CO)[C@@H](O)[C@@H]1O [Compound 14, p-Cyanophenyl 2-acetamido-2-deoxy-β-D-glucopyranoside]
- VEGF induced tube formation [3]: significantly decreased
- cytotoxicity in hPBMC (cell viability) [4]: not toxic
- % inhibition over control TLR4 ([1]; Concentration 1 µM): +++ (+++ means that the % of inhibition or activation is in the range of 75-95%)
- % inhibition over control TLR4 ([1]; Concentration 100 µM): +++ (+++ means that the % of inhibition or activation is in the range of 75-95%)
- IL-1β response [2]: increased
- TNF-α response [2]: increased
- anti-inflammatory cytokine IL-10 [2]: decreased
- cytotoxicity in HUVECs (cell viability) [5]: not toxic

Molecule: CC(=O)N[C@H]1[C@H](Oc2ccc3c(C)cc(=O)oc3c2)O[C@H](COS(=O)(=O)O)[C@@H](O)[C@@H]1O [Compound 30]
- % activation over control TLR4 ([1]; Concentration 1-10 µM): + (+ means that the % of inhibition or activation is in the range of 15-25%)
- % inhibition over control TLR4 ([1]; Concentration 1-10 µM): + (+ means that the % of inhibition or activation is in the range of 15-25%)
- % activation over control TLR4 ([1]; Concentration 75-100 µM): + (+ means that the % of inhibition or activation is in the range of 15-25%)

Molecule: COc1ccc(O[C@@H]2O[C@H](CO)[C@@H](O)[C@H](O)[C@H]2NC(C)=O)cc1 [Compound 38]
- % inhibition over control TLR2 ([6]; Concentration 75-100 µM): ++ (++ means that the % of inhibition or activation is in the range of 25-75%)

Molecule: colistin [reference compound]
- Re-epithelialization and granulation tissue ([8]; H&E histology, day 13 post-injury, vs controls, p=0.050 (Colistin, compound 1), p=0.073 (compound 8)): significantly enhanced
- closure of P. aeruginosa infected skin wounds ([8]; topical, each alternate day, day 13, compounds 100µM / 100µg /ml, Colistin 4µg/ml): complete closure
